Measurements taken from patent US20030228627A1, “Assay for p53 function in cells” (priority 2002, published 2003).
One block for each compound: values may come before it.

Legend:
p21 promoter 5′ site = assay: Electrophoretic Mobility Shift Assay (EMSA) of p53 binding to DNA containing the 5′ site of the p21 promoter; parameters: species or system human; conditions: compared with the acetylated form of wild-type p53
Source text: Both probes were ^32P end-labeled using T4 polynucleotide kinase and further purified by 12%-15% polyacrylamide native gels.

p21 promoter [1] = assay: DNase I footprinting of chromatin and DNA (p21-LUC plasmid); format: binding, human; conditions: DNase I footprinting on p21 promoter DNA or chromatin
Method: To analyze the mechanism by which p300 mediates p53-dependent activation, DNase I chromatin footprinting assays were performed to examine the occupancy of the 5′ and 3′ sites of the p21 promoter under conditions of transcriptional coactivation. Chromatin assembly and factor incubation steps were performed as described above, but the samples were split into three aliquots just before the in vitro transcription reaction. One aliquot was subjected to DNase I digestion, the second was transcribed, and the third was analyzed by Western blot to determine the acetylation status of p53.
DNA footprinting experiments were performed with chromatin-assembled p21 promoters after ATP depletion and purification by gel filtration using nonsaturating amounts of p53.
DNase I footprinting was done using three different templates: crude chromatin-assembled mixtures, CL4B-purified chromatin, and naked DNA. […] After incubation of the different templates with the proteins, samples were digested with 33 U/ml (crude chromatin), 1.5 U/ml (purified chromatin) or 0.1 U/ml (naked DNA) DNase I (Boehringer Mannheim) for 75 s at 25° C. Purified DNA fragments were analyzed by primer extension.

[2] = test system: chromatin-assembled p21 promoter; assay: In vitro transcription of the chromatin-assembled p21-LUC template with HeLa cell nuclear extract; format: biochemical, human
Method: The p21-LUC chromatin template was subjected to in vitro transcription reactions using HeLa cell nuclear extracts as a source of basal initiation components in the presence or absence of p53 and/or p300, as described in the protocol depicted in FIG. 1B. Both factors were added after chromatin assembly was complete (“post assembly”) and incubated with the template prior to in vitro transcription. Addition of p53 alone produced very modest transcriptional activation. […] Neither p53 nor p300 appreciably influenced transcription of naked DNA templates. Identical results were obtained using extracts from another cell line, erythroid K562. Thus, transcriptional activation from the chromatin-assembled p21 promoter in vitro requires p53, acting at a distance of at least 1.38 kb, in combination with a histone acetyl transferase cofactor, p300.
Chromatin was reconstituted using Drosophila embryonic extracts as described (Bulger, M. and Kadonaga, J. 1994 Methods Mol Genet 5:242-262). After assembly, the chromatin template (500 ng of DNA in 50 μl) was incubated with p53 and/or p300 (typically between 0.2-10 pmol of p53 and 0.2-0.5 pmol of p300), for 30 min at 27° C. For transcription, 20 μl of HeLa cell nuclear extract (typically 8 mg/ml) was added and incubated on ice for 10 min, then reactions proceeded as described (Kadam, S. et al. 2000 Genes & Dev 14:2441-2451). The purified RNA was analyzed by primer extension analysis with primers specific to luciferase and -globin gene (used as an internal control) sequences.

[3] = test system: chromatin-assembled p21 promoter; assay: In vitro chromatin immunoprecipitation with anti-acetyl-H4 antibodies; format: biochemical, human; conditions: p53 and p300
Method: To determine whether p53 influenced the localization of nucleosome acetylation on the p21 promoter by direct recruitment of p300, in vitro chromatin immunoprecipitation assays were performed. p21 promoters were assembled into chromatin using purified components and incubated with p53 and/or p300. Chromatin was digested with micrococcal nuclease and acetylated oligonucleosomes were immunoprecipitated using anti-acetyl-H4 antibodies. Specific p21 plasmid sequences in the immunoprecipitates were detected by PCR amplification or Southern blot. Identical results were obtained from both assays. […] The extent of increased acetylation in different regions of the p21-LUC plasmid varied from 3.4-fold near the 3′ p53 binding site to 1.4-fold in a distal region located 2 kb downstream of the proximal promoter. […] The following decreasing levels of acetylation were found: 3′ site>TATA box=5′ site>>+2 kb.
Chromatin immunoprecipitation analysis was performed using the anti-acetylated histone H4 antibody (Upstate Biotechnology) according to the manufacturer's recommendations and as previously described (Kundu, T. K. et al. 2000 Mol Cell 6:551-561) with some minor modifications, and as described in Example 2 (see below).

[4] = test system: nucleosomal histones of the chromatin-assembled p21 promoter; assay: Chromatin HAT assay (3H-acetyl CoA incorporation); format: biochemical
Method: The quality of p21 promoter chromatin assembled in this purified system was determined by micrococcal nuclease digestion, as for embryo extracts, with similar results. The templates were then incubated with p53 and/or p300 in the presence of ^3H-acetyl CoA and the extent of acetylation monitored by incorporation of radioactivity when analyzed by SDS-PAGE and fluorography. […] A control reaction with equivalent amounts of free histones and p300 was included. Acetylation of p53 and autoacetylation of p300 was also detected.
Chromatin assembly was performed with recombinant dACF complex and NAP-1 histone chaperone as described (Ito, T. et al. 1999 Genes & Dev 13:1529-1539 and references therein). Chromatin assembly was assessed by micrococcal nuclease digestion and transcriptional repression. After assembly, proteins were added to the chromatin mixtures in the presence of 5 μM ^3H-acetyl CoA (ICN). After incubation for 1 hr at 30° C. with p53 and/or p300, reactions were stopped by boiling in SDS-PAGE loading buffer and analyzed on a 15% SDS-PAGE gel. The gel was fixed and treated with fluorography enhancing solutions (NEN Life Science). The gel was then dried and exposed to autoradiography.

p21 promoter [5] = assay: Chromatin immunoprecipitation (ChIP) in U2OS cells after DNA damage, p21 promoter; format: cell-based, human
Source text: To address this issue, a chromatin immunoprecipitation (ChIPs) technique was used to examine the temporal order of interaction of a variety of transcription proteins to individual p53-responsive promoters that control cell cycle arrest and apoptosis before and after DNA damage by two different damaging agents. […] For example, before damage the p21 promoter is already poised for transcription by containing bound RNA polymerase II, TATA binding protein (TBP), TFIIB, and TFIIH.
U2OS cells were grown to 50-60% confluency and treated either with UV-C or doxorubicin, (constant presence in media) for various times before crosslinking. After aspirating the media and washing with phosphate-buffered saline (PBS), cells were crosslinked with a 1% formaldehyde solution in 1×PBS for 15 min at room temperature. Crosslinking was stopped by addition of glycine to 125 mM final concentration. Monolayers were washed twice with cold PBS and harvested in radioimmunoprecipitation assay (RIPA) buffer [150 mM NaCl, 1% v/v Nonidet P-40, 0.5% w/v deoxycholate, 0.1% w/v SDS, 50 mM Tris pH 8, 5 mM EDTA, protease inhibitor cocktail, phosphatase inhibitors (20 mM NaF/0.2 mM sodium orthovanadate), deacetylase inhibitors (5 μM trichostatin A/5 mM sodium butyrate) and 0.5 mM PMSF] to generate a suspension of 10 million cells/ml. Suspensions were sonicated to generate DNA fragments below 500 bp and clarified by centrifugation for 10 min at 12000 g. Protein solutions were quantified for protein and DNA content and adjusted to 1 mg/ml of protein.
For immunoprecipitation, 1 mg of protein extract was pre-cleared for 2 hrs with 40 μl of a 50% slurry of 50:50 proteinA:proteinG sepharose before addition of indicated antibodies. Antibody (Ab) sources: DO1 (anti-total p53, Oncogene), S15P (anti-Serine 15-phospho-p53, Cell Signaling), AcH4 (Upstate), anti-TAF250 (R. Tjian), anti-TFIIB, -TBP, -RNApol II, -TFIIH (Santa Cruz), anti-serine 2-phospho-RNApol II and anti-serine 5-phospho-RNApol II (Covance). […]
DNA was precipitated and used as template in semi-quantitative PCR reactions. […]

binding activity in EMSA (p21 promoter 5′ site): strongly active
binding to the 3′ site (p21 promoter [1]): no binding
binding to the 5′ site (p21 promoter [1]): weaker binding
Compound: p53ΔC30: C-terminal deleted form of p53, lacking the last 30 amino acid residues

Compound: p53KR: mutant p53 in which lysines 370, 372, 373, 381, and 382 within the C-terminal domain were replaced by arginine
ability to activate transcription compared with wild-type p53 ([2]; with p300): coactivated by p300 to a similar extent as wild-type p53

Compound: p300: full-length human histidine-tagged p300, histone acetyl transferase cofactor, expressed in Sf9 cells
transcriptional activation of the chromatin template ([2]; coincubation with p53): strong synergistic de-repression
transcriptional activation of the chromatin template ([2]; p300 alone): unable to achieve such activation
extent of increased acetylation ([3]; distal region 2 kb downstream of the proximal promoter): 1.4 fold
extent of increased acetylation ([3]; near the 3′ p53 binding site): 3.4 fold
acetylation of nucleosomal histones ([4]; both p53 and p300 present): strong acetylation
acetylation of nucleosomal histones ([4]; p300 alone): very weak acetylation

Compound: COc1cccc2c1C(=O)c1c(O)c3c(c(O)c1C2=O)C[C@@](O)(C(=O)CO)C[C@@H]3O[C@H]1C[C@H](N)[C@H](O)[C@H](C)O1 [doxorubicin]
binding of phosphorylated p53 to the p21 promoter (p21 promoter [5]): significantly increased
recruitment of TAFII250 to the p21 promoter (p21 promoter [5]): no recruitment
recruitment of TFIIB to the p21 promoter (p21 promoter [5]): active recruitment
